In one experiment the target is T1, mouse Pih1-PIH domain (Mus musculus, UniProt Q9CQJ2).
T1 construct: We determined the crystal structure of the mouse PIH domain^1–200; His (N); made in house
Briefly: ITC, phosphopeptide binding to Pih1 PIH domain. The conditions noted are these: 30°C; for Kd: 20 mM Tris pH 7.5, 5 mM NaCl, peptides at 350 μM injected into 30 μM Pih1. As to the method:
(§1) Heat of interaction was measured on an ITC200 microcalorimeter (Microcal) under the same buffer conditions (20 mM Tris, pH 7.5, containing 5 mM NaCl). Aliquots of the Tel2 peptides at 350 μM were injected into 30 μM of Pih1 at 30°C. Interactions with Tah1 or Spagh/RPAP3^120–395 were performed in 10 mM Tris pH 7.5 and 5 mM NaCl at 10°C and 30°C. Aliquots of 600 μM Tah1 were injected into 40 μM of yeast Hsp90, 400 μM of SRMEEVD injected into 30 μM Tah1, 301 μM yeast Hsp90 injected into 25 μM yeast Tah1-Pih1 complex, and 400 μM SRMEEVD injected into 30 μM yeast Tah1-Pih1 complex. For Spagh/RPAP3^120–395 experiments, aliquots of 500 μM yeast Hsp90 were injected into 20 μM Spagh/RPAP3^120–395 or 2 mM […] into 80 μM Spagh/RPAP3^120–395 or mutants (N172E, N321E, and N172E-N321E). Heats of dilution were determined by diluting injectant into buffer. Data were fitted using a curve-fitting algorithm (Microcal Origin). ATPase assays were previously described ([Prodromou et al., 1999]).

Another experiment addresses yeast Hsp90. Briefly: ITC, binding of Tah1 or Tah1-Pih1 complex to Hsp90 dimer. The conditions noted are these: for Kd: 10 mM Tris pH 7.5, 5 mM NaCl, 600 μM Tah1 into 40 μM yeast Hsp90, or 301 μM yeast Hsp90 into 25 μM yeast Tah1-Pih1 complex; for N (sites) / ΔH / ΔS: same titrations as KD. As to the method: as §1

Several values for one entry are separate records, joined by “and”; a condition that tells them apart may be missing. Identical values can stand only once. Square brackets hold non-standard residues; d marks the D form. Peptide text beside a SMILES is read from it. pS = N[C@@H](COP(=O)(O)O)C(=O)O

T1 sequence (Q9CQJ2 1-200): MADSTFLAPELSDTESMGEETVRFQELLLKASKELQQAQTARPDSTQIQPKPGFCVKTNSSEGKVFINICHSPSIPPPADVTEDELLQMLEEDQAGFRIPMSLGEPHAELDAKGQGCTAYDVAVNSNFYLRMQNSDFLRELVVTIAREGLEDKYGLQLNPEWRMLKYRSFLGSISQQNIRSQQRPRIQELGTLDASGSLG

On mouse Pih1-PIH domain, `CC[C@H](C)[C@H](NC(=O)[C@H](CO)NC(=O)[C@H](CC(=O)O)NC(=O)[C@H](CC(=O)O)NC(=O)[C@H](COP(=O)(O)O)NC(=O)[C@H](CC(=O)O)NC(=O)[C@H](CC(N)=O)NC(=O)[C@H](C)NC(=O)[C@@H](N)CCSC)C(=O)O` [Mre11 phosphoserine peptide] (H-MAND[pS]DDSI-OH; N-terminus and C-terminus assumed) returned a ΔH of -7.313 ± 0.3547 kcal/mol and a ΔS of -0.36 cal/mol/deg. Moreover, the N on mouse Pih1-PIH domain (fitted) turned out to be 0.76 ± 0.03 sites.
At mouse Pih1-PIH domain, `CC(C)C[C@H](NC(=O)[C@H](CCC(=O)O)NC(=O)[C@H](COP(=O)(O)O)NC(=O)[C@H](CC(=O)O)NC(=O)[C@H](COP(=O)(O)O)NC(=O)CNC(=O)[C@@H](N)CCC(N)=O)C(=O)N[C@@H](CC(=O)O)C(=O)N[C@@H](CO)C(=O)N[C@@H](CC(=O)O)C(=O)N[C@@H](CC(=O)O)C(=O)N[C@@H](CCC(=O)O)C(=O)N[C@@H](Cc1ccccc1)C(=O)O` [pS486, pS488-Tel2] gave a Kd of 37.9 µM.
On the same count and under the same terms, with `CC(C)C[C@H](NC(=O)[C@H](CCC(=O)O)NC(=O)[C@H](CO)NC(=O)[C@H](CC(=O)O)NC(=O)[C@H](COP(=O)(O)O)NC(=O)CNC(=O)[C@@H](N)CCC(N)=O)C(=O)N[C@@H](CC(=O)O)C(=O)N[C@@H](CO)C(=O)N[C@@H](CC(=O)O)C(=O)N[C@@H](CC(=O)O)C(=O)N[C@@H](CCC(=O)O)C(=O)N[C@@H](Cc1ccccc1)C(=O)O` [pS486-Tel2] the figure was 115 µM and > 100 µM.
On the same count and under the same terms, with `CC(C)C[C@H](NC(=O)[C@H](CCC(=O)O)NC(=O)[C@H](COP(=O)(O)O)NC(=O)[C@H](CC(=O)O)NC(=O)[C@H](CO)NC(=O)CNC(=O)[C@@H](N)CCC(N)=O)C(=O)N[C@@H](CC(=O)O)C(=O)N[C@@H](COP(=O)(O)O)C(=O)N[C@@H](CC(=O)O)C(=O)N[C@@H](CC(=O)O)C(=O)N[C@@H](CCC(=O)O)C(=O)N[C@@H](Cc1ccccc1)C(=O)O` [pS488,pS492-Tel2] the figure was 0.17 µM; with `CC(C)C[C@H](NC(=O)[C@H](CCC(=O)O)NC(=O)[C@H](COP(=O)(O)O)NC(=O)[C@H](CC(=O)O)NC(=O)[C@H](CO)NC(=O)CNC(=O)[C@@H](N)CCC(N)=O)C(=O)N[C@@H](CC(=O)O)C(=O)N[C@@H](CO)C(=O)N[C@@H](CC(=O)O)C(=O)N[C@@H](CC(=O)O)C(=O)N[C@@H](CCC(=O)O)C(=O)N[C@@H](Cc1ccccc1)C(=O)O` [pS488-Tel2], 15.3 µM.
At mouse Pih1-PIH domain, `CC(C)C[C@H](NC(=O)[C@H](CCC(=O)O)NC(=O)[C@H](CO)NC(=O)[C@H](CC(=O)O)NC(=O)[C@H](CO)NC(=O)CNC(=O)[C@@H](N)CCC(N)=O)C(=O)N[C@@H](CC(=O)O)C(=O)N[C@@H](COP(=O)(O)O)C(=O)N[C@@H](CC(=O)O)C(=O)N[C@@H](CC(=O)O)C(=O)N[C@@H](CCC(=O)O)C(=O)N[C@@H](Cc1ccccc1)C(=O)O` [pS492-Tel2] yielded a Kd of 0.39 µM.
For “Tah1-Pih1 complex: pre-assembled full-length yeast Tah1-Pih1 complex”, at yeast Hsp90, the affinity, expressed as Kd, was 4 µM; the “N (sites)” value amounted to 0.93 ± 0.04 sites; the ΔH was -7.595 ± 0.404 kcal/mol; the ΔS was -0.367 cal/mol/deg.
In the same order, the values of “Tah1: yeast TPR-domain protein, Hsp90 cochaperone of the R2TP complex” are 5.9 µM, 0.68 ± 0.01 sites, -8.445 ± 0.1642 kcal/mol and -3.95 cal/mol/deg.

For the origin of these results see PMC4058522, “Structural Basis for Phosphorylation-Dependent Recruitment of Tel2 to Hsp90 by Pih1” (Structure(London, England:1993), 2014).
